The source of these data is PubChem BioAssay (NCI).

In general, GI50 refers to the concentration that inhibits growth by half. By TGI is commonly meant the concentration at which net growth stops.

Some test systems named below: SR leukemia; CCRF-CEM leukemia; SF-539 CNS; ACHN renal; IGROV1 ovarian; SNB-75 CNS; HCT-116 colon; OVCAR-8 ovarian; HCC-2998 colon; OVCAR-5 ovarian.
What all share (assay): DTP human tumour cell line panel, 48 h

Several values for one entry are separate records, joined by “and”; a condition that tells them apart may be missing. Equal entries are not always repeated.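 Five concentrations, 48 hours, 96-well plates. GI50 = concentration required for 50% inhibition of growth. TGI: total growth inhibition.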 Where only a bound is given, the exact number is not on record here.

Consider `O=C(Nc1ccc(Cl)c(Cl)c1)Nc1ccc(Cl)c(Cl)c1`, for which the GI50 is 2700 nM and 2260 nM in the experiment on SR leukemia; 3360 nM and 1970 nM in the experiment with CCRF-CEM leukemia; 2630 nM and 3640 nM in the experiment on SF-539 CNS; 2.34 µM and 3.28 µM in the experiment with ACHN renal; 4200 nM and 3360 nM in the experiment with IGROV1 ovarian; 2150 nM and 2850 nM in the experiment on SNB-75 CNS. The GI50 in the experiment with HCT-116 colon is 2850 nM and 2100 nM; in the experiment on OVCAR-8 ovarian, 3.12 µM and 2.54 µM; in the experiment with HCC-2998 colon, 3.71 µM and 3.01 µM; with OVCAR-5 ovarian, 2.74 µM and 4.27 µM. The TGI with SR leukemia is 10.9 µM and 6.66 µM; with CCRF-CEM leukemia, 14.1 µM and 6.47 µM; in the experiment on SF-539 CNS, 8.15 µM and 14.7 µM; with ACHN renal, 6.49 µM and 10.5 µM; in the experiment with IGROV1 ovarian it was 22.2 µM and 10.5 µM; in the experiment on SNB-75 CNS, 7.81 µM and 18.8 µM. The total growth inhibition concentration (TGI) in the experiment on HCT-116 colon was 11 µM and 7.41 µM; in the experiment on OVCAR-8 ovarian, 14.1 µM and 9.83 µM; with HCC-2998 colon, 13.4 µM and 11.5 µM; in the experiment with OVCAR-5 ovarian, 7.53 µM and 17.6 µM.

In the case of `CO[C@H](C(=O)[C@@H](O)[C@@H](C)O)[C@@H]1Cc2cc3cc(O[C@H]4C[C@@H](O[C@H]5C[C@@H](O)[C@H](O)C(C)O5)[C@H](O)C(C)O4)c(C)c(O)c3c(O)c2C(=O)[C@H]1O[C@H]1C[C@@H](O[C@H]2C[C@@H](O[C@H]3C[C@](C)(O)C(=O)C(C)O3)[C@@H](O)C(C)O2)[C@H](O)C(C)O1` (some centres not stated), the GI50 in the experiment on SR leukemia is 38.5 nM; in the experiment on CCRF-CEM leukemia, 211 nM; in the experiment on SF-539 CNS it was 47.3 nM; with ACHN renal, 0.154 µM; in the experiment on IGROV1 ovarian it was 132 nM; in the experiment on SNB-75 CNS it was 45 nM. Moreover, the GI50 in the experiment on HCT-116 colon is 44.4 nM; in the experiment on OVCAR-8 ovarian it was 0.0991 µM; in the experiment with HCC-2998 colon, 0.222 µM; in the experiment with OVCAR-5 ovarian, 0.115 µM. Further, the TGI was more than 33.2 µM with SR leukemia; more than 33.2 µM in the experiment on CCRF-CEM leukemia; 0.224 µM with SF-539 CNS; 1.55 µM with ACHN renal; more than 33.2 µM with IGROV1 ovarian; 0.211 µM in the experiment on SNB-75 CNS. Also, the TGI in the experiment on HCT-116 colon was more than 15.7 µM; with OVCAR-8 ovarian, more than 33.2 µM; in the experiment with HCC-2998 colon, 1.72 µM; with OVCAR-5 ovarian it was more than 22.1 µM.

On to `COc1ccc2c(c1)/C(=C/c1c(C)nc3sc(C)nn13)C(=O)N2`, for which the GI50 is 310 nM with SR leukemia; 2520 nM in the experiment with CCRF-CEM leukemia; 3290 nM in the experiment with SF-539 CNS; 6.53 µM in the experiment on ACHN renal; 2180 nM in the experiment on IGROV1 ovarian; 1580 nM in the experiment with SNB-75 CNS. Further, the GI50 is 1770 nM with HCT-116 colon, 6.38 µM in the experiment on OVCAR-8 ovarian, 0.632 µM in the experiment on HCC-2998 colon and 9.28 µM in the experiment with OVCAR-5 ovarian. In addition, the TGI in the experiment with CCRF-CEM leukemia is more than 100 µM; with SF-539 CNS it was more than 50.7 µM; in the experiment on ACHN renal, more than 100 µM; in the experiment with IGROV1 ovarian, more than 100 µM; with SNB-75 CNS, 7.14 µM; in the experiment with HCT-116 colon, more than 100 µM. Besides, the values for the concentration for total growth inhibition (TGI) in the experiment with OVCAR-8 ovarian, with HCC-2998 colon and in the experiment with OVCAR-5 ovarian were more than 100 µM, 7.86 µM and more than 100 µM, respectively.

As to `CN1C(=O)C(C)(C)C2(SC(C)(C)C2(C)C)N(C)C1=S` (configuration not stated), the TGI in the experiment on SR leukemia, in the experiment on CCRF-CEM leukemia, in the experiment on SF-539 CNS, in the experiment on ACHN renal, in the experiment on IGROV1 ovarian and with SNB-75 CNS was more than 100 µM each time. The TGI in the experiment with HCT-116 colon, in the experiment on OVCAR-8 ovarian, in the experiment with HCC-2998 colon and in the experiment with OVCAR-5 ovarian was more than 100 µM throughout.

Regarding `Cc1ccc2c(=O)cc(-c3ccc(F)cc3)[nH]c2n1`, the TGI is 34.4 µM in the experiment with SR leukemia; more than 100 µM in the experiment on CCRF-CEM leukemia; more than 100 µM with SF-539 CNS; more than 100 µM in the experiment with ACHN renal; more than 100 µM with IGROV1 ovarian; 49.6 µM in the experiment with SNB-75 CNS. Also, the TGI with HCT-116 colon, with OVCAR-8 ovarian, in the experiment on HCC-2998 colon and in the experiment on OVCAR-5 ovarian was more than 100 µM throughout. Moreover, the GI50 in the experiment on HCT-116 colon was 33900 nM.

Consider `CSc1nc2c(c(=O)[nH]1)N=C1c3ccccc3C(=O)C1C(c1ccccc1)N2` (configuration not stated), for which the GI50 with SR leukemia was 1510 nM; with CCRF-CEM leukemia, 6920 nM; in the experiment on SF-539 CNS, 2840 nM; in the experiment with ACHN renal, 3.73 µM; in the experiment with IGROV1 ovarian it was 4540 nM; with SNB-75 CNS, 1270 nM. In addition, the GI50 with HCT-116 colon was 4210 nM; with OVCAR-8 ovarian it was 19.1 µM; in the experiment on HCC-2998 colon, 6.75 µM; in the experiment with OVCAR-5 ovarian, 63.4 µM. Moreover, the TGI in the experiment on SR leukemia is more than 100 µM; in the experiment on CCRF-CEM leukemia, more than 100 µM; in the experiment on SF-539 CNS, 17.9 µM; in the experiment on ACHN renal, more than 100 µM; in the experiment with IGROV1 ovarian it was more than 100 µM; with SNB-75 CNS, 8.78 µM. The TGI in the experiment with HCT-116 colon, with OVCAR-8 ovarian, in the experiment with HCC-2998 colon and in the experiment with OVCAR-5 ovarian was more than 100 µM in each case.

As for `COC(=O)[C@@H]1[C@H](O)[C@H](C)[C@H](O)[C@@](C)(O)/C=C\C=C(C)C(=O)Nc2c(C)c(OC(C)=O)c3c(c2O)C(=O)C(C)=C2OCOC(=C23)C(C)=C[C@@](C)(O)[C@H](O)[C@@H](C)[C@H]1OC(C)=O`, the GI50 with SR leukemia was 58000 nM and 24300 nM and 28400 nM; in the experiment on CCRF-CEM leukemia it was 12800 nM; in the experiment with SF-539 CNS, more than 66900 nM; in the experiment on ACHN renal, more than 66.9 µM; in the experiment with HCT-116 colon, 59700 nM; with OVCAR-8 ovarian, 42.3 µM. For the same molecule, the GI50 in the experiment on HCC-2998 colon was 11.1 µM. Further, the TGI in the experiment with SR leukemia was > 100 µM and 63.8 µM and 89 µM; with CCRF-CEM leukemia, > 100 µM and 66.9 µM and 47.6 µM; in the experiment with SF-539 CNS it was more than 100 µM; with ACHN renal, more than 100 µM; in the experiment on IGROV1 ovarian, > 100 µM and 66.9 µM; with SNB-75 CNS it was more than 100 µM. Besides, the TGI is > 100 µM and 66.9 µM in the experiment with HCT-116 colon; > 100 µM and 66.9 µM in the experiment with OVCAR-8 ovarian; > 100 µM and 66.9 µM with HCC-2998 colon; more than 100 µM with OVCAR-5 ovarian.

`Cc1nc2ccccc2c(N)c1-c1cc(C)c2c(C)nc3ccccc3c2n1`: the GI50 in the experiment with SR leukemia was 190 nM; in the experiment on CCRF-CEM leukemia, 362 nM; with SF-539 CNS, 1310 nM; with ACHN renal, 0.237 µM; in the experiment with IGROV1 ovarian it was 294 nM; in the experiment with SNB-75 CNS, 1520 nM. The GI50 with HCT-116 colon was 257 nM; in the experiment on OVCAR-8 ovarian it was 1.41 µM; in the experiment on HCC-2998 colon, 0.627 µM; with OVCAR-5 ovarian, 1.59 µM. The TGI came out at 2.59 µM in the experiment on SR leukemia; 2.12 µM with CCRF-CEM leukemia; 2.59 µM in the experiment on SF-539 CNS; 0.599 µM in the experiment with ACHN renal; 0.86 µM with IGROV1 ovarian; 3.16 µM in the experiment on SNB-75 CNS. Moreover, the TGI in the experiment with HCT-116 colon was determined as 0.728 µM; in the experiment with OVCAR-8 ovarian it was 2.95 µM; in the experiment with HCC-2998 colon it was 1.95 µM; in the experiment with OVCAR-5 ovarian, 3.06 µM.

For `O=C(/C=C/c1ccccc1)NC1C=Nc2ccc(Cl)cc2NC1=O` (configuration not stated), the TGI in the experiment with SR leukemia is 56.3 µM; in the experiment on CCRF-CEM leukemia it was 33.5 µM; with SF-539 CNS, 88.2 µM; in the experiment with ACHN renal, more than 100 µM; in the experiment with IGROV1 ovarian, more than 100 µM; in the experiment with SNB-75 CNS, 62.9 µM. Further, the total growth inhibition concentration (TGI) with HCT-116 colon was 85.7 µM; in the experiment on OVCAR-8 ovarian it was more than 100 µM; in the experiment with HCC-2998 colon it was 65.5 µM; with OVCAR-5 ovarian, more than 100 µM.
